Test results published in article PMC6324650 (Molecular Pharmacology, 2019).

Tests used:
[1] = Hydrolysis and cyclization of active NHS ester in PBS; assay type: physicochemical; conditions: PBS (pH 8.2), ligand coupling conditions
[2] = system: NK1 receptor; conditions: 37°C; ref Garland et al., 1994; cited from earlier work

| Compound | hydrolysis and cyclization of the active NHS ester [1] | time to NK1 receptor internalization upon activation [2] |
| --- | --- | --- |
| O=C(CCCC[C@@H]1SC[C@@H]2NC(=O)N[C@@H]21)NCCCOCCOCCOCCCn1cc(CNC(=O)[C@H](CCCCNC(=O)CCC(=O)ON2C(=O)CCC2=O)NC(=O)CCc2ccc(C3(C(F)(F)F)N=N3)cc2)nn1 [probe 1, 2,5-Dioxopyrrolidin-1-yl 4-oxo-4-(((S)-6-oxo-6-(((1-(15-oxo-19-((3aS,4S,6aR)-2-oxohexahydro-1H-thieno[3,4-d]imidazol-4-yl)-4,7,10-trioxa-14-azanonadecyl)-1H-1,2,3-triazol-4-yl)methyl)amino)-5-(3-(4-(3-(trifluoromethyl)-3H-diazirin-3-yl)phenyl)propanamido)hexyl)amino)butanoate] | partial hydrolysis as well as intramolecular cyclization of the active NHS ester were inevitable |  |
| substance P [SP] |  | 3 min |
